Like-named read-outs stand apart in the source and are kept apart here.

In one data set the test system is MCF7-AR1 cells. The data set can be described thus: A-Screen bioassay: androgen-dependent inhibition of E2-induced proliferation. It counts as cell-based. Particulars: Homo sapiens; in the presence of E2; read-out: IC50 of inhibition of cell proliferation. The protocol: In this example ATE and RCE were assessed for androgenic activity using the A-screeen assay. MCF7-AR1 is a human cancer-derived cell line which has been genetically engineered to overexpress the androgenic receptor (AR). […] This assay measures androgen-dependent inhibition of proliferation of the androgen receptor (AR)-positive human mammary carcinoma cell line, MCF7-AR1. This cell line has been stably transfected with a full human AR and expresses approximately five times more AR than wild-type cells. MCF7-AR1 cells retain the capacity to proliferate in response to estrogen treatment (E2). Androgens inhibit estrogen-induced proliferation and cells arrest in G0/G1 phase in a dose-dependent manner.
The A-Screen bioassay compares the cell number of similar inocula of MCF-7-AR1 cells growing in media in the absence of any estrogen and androgens (C−, negative control), in the presence of E2 (C+, estrogen control) and in the presence of E2 in combination with different concentrations of the suspected androgen (FIG. 11). Androgenic activity of a test compound results in the inhibition of cell proliferation compared to the E2 control.

Data set [1] has as its system polyribosomes from the livers of mice. Particulars: cited from earlier work.
The test system of data set [2] is protein synthesis in mouse liver. As to conditions: actinomycin D 2 mg/kg 30 minutes before the test substance; cited from earlier work.
Data set [3] deals with myostatin (Mstn) gene expression in C2C12 muscle cells. Briefly: Myostatin gene expression in C2C12 myotubes (RT2 Profiler PCR Array, Example 1). It counts as cell-based, mouse. As to conditions: 20 ppm ATE or 1 μM methandrostenolone, 6 h. The protocol:
(§1) The effect of Ajuga turkestanica extract (ATE) standardized to Turkesterone content was studied in muscle cells. […] Cells between passages 3 and 10 were seeded at a density of 10,000 cells per cm^2. Cells were grown for 48 h until they reached 80-90% confluence. […] Cells were maintained at 37° C. in a humidified 5% CO2 incubator and medium was changed every other day.
(§2) For RNA extraction, C2C12 cells were plated and differentiated to myotubes into 12-wells plates. […] RNA was then extracted using an All Prep RNA/Protein Kit (Qiagen, Spain). Total RNA was quantified using a fluorometric method with Quant-iT kit (Invitrogen, Spain). RNA was stored at −80° C. until further use. cDNA was reverse-transcribed from the RNA extract using RT^2 First Stand cDNA kit and we used a RT^2 Profiler PCR Array to analyze a panel of 84 genes involved in skeletal muscle development and disease (Qiagen, Spain). Quantitative real-time RT-PCR was carried out using a SYBR-Green/ROX detection in a MX3005P Q-PCR System. Samples were heated at 95° C. for 10 min, followed by a second stage composed of 15 sec at 95° C., 1 min at 60° C. which was repeated 40 times and third stage for dissociation curve composed of 1 min at 95° C., 30 sec at 55° C. and 30 sec at 95° C. The PCR-array data was analyzed by calculating relative gene expression and statistical significance through the use of known methods.

Data set [4] has as its system Caspase-3 (Casp3) gene expression in C2C12 muscle cells. Briefly: Caspase-3 gene expression in C2C12 myotubes (RT2 Profiler PCR Array, Example 1). It counts as cell-based, mouse. Particulars: 20 ppm ATE or 1 μM methandrostenolone, 6 h. The protocol: as §1, §2
For another data set, the system named is C2C12 myotubes. The data set can be described thus: Protein synthesis by radio-labeled leucine incorporation in C2C12 myotubes (Example 3). Type of data set: cell-based, mouse.
The conditions of data set [5]: cited from earlier work.
The conditions of data set [6]: cited from earlier work; for effect on the sexual apparatus (ventral prostate weight, seminal vesicle weight): sexually immature intact rats.
Data set [7] has as its system Caspase-3 expression in C2C12 myotubes. The data set can be described thus: Caspase 3 expression in C2C12 myotubes (quantitative RT-PCR, Example 4). Type of data set: cell-based, mouse. As to conditions: 24 hours; extracts and turkesterone 0.002, 0.02 and 2 ppm, 20HE 0.001, 0.01 and 1 ppm. The protocol: Experiments similar to those in example 1 have been carried out with two other plant-derived, ecdysteroid-rich extracts. […] Cells between passages 3 and 10 were seeded at a density of 10,000 cells per cm^2. Cells were grown for 48 h until they reached 80-90% confluence. […] Cells were maintained at 37° C. in a humidified 5% CO2 incubator and medium was changed every other day.
For RNA and protein extraction C2C12 myotubes were incubated with 0.002, 0.02 and 2 ppm of Rhaponticum carthamoides extract (RCE) and Cyanotis arachnoidea extract (CAE) or 0.001, 0.01 and 1 ppm of 20-hydroxyecdysone or 0.002, 0.02 and 2 ppm of Turkesterone for 24 hours. These two latter served as positive controls. RNA and protein were extracted using All Prep RNA/Protein Kit (Qiagen, Spain). RNA was stored at −80° C. and protein at −20° C. until further use. Total RNA was quantified using a fluorometric method with Quant-iT kit (Invitrogen, Spain). The cDNA was reverse-transcribed from the RNA extract using RT^2First Stand cDNA kit (Qiagen, Spain). Quantitative real-time RT-PCR for Caspase-3 and Myostatin were carried out using a MX3005P Q-PCR System (Agilent Technologies) and SYBR-Green/ROX detection. The housekeeping gene used was Actb and Mouse XpressRef Universal total RNA (Qiagen, Spain) as a positive control. […] The fold change in gene expression was calculated with ΔΔCt Method.

[8] abbreviates: castrated sexually immature rats.
The mark [9] stands for this setting: sexually immature intact rats, 0.5 mg per 100 g intragastrically daily for 10 days.
[10] abbreviates: sexually mature male rats, 0.5 mg per 100 g intragastrically daily for 10 days.

Consider `C[C@]1(O)CC[C@H]2[C@@H]3CCC4=CC(=O)CCC4=C3C=C[C@@]21C` [Example R1881, methyltrienolone], for which the IC50 in the data set on MCF7-AR1 cells stood at 0.02 nM.
As for `C[C@]12C=CC(=O)C=C1CC[C@@H]1[C@@H]2CC[C@@]2(C)[C@H]1CC[C@]2(C)O` [Nerobol], the “increase of protein synthesis in the system of polyribosomes and cellular fluid from livers of treated animals” value in data set [1] (mice, Nerobol 1.0 mg/100 g, P<0.001) is 14%. Also, the “effect of actinomycin D on the stimulation of liver protein synthesis” value in [2] is reported as “almost totally removed the effect”.
Take `C[C@]12C=CC(=O)C=C1CC[C@@H]1[C@@H]2CC[C@@]2(C)[C@H]1CC[C@]2(C)O` [methandrostenolone]: the “down-regulation of Myostatin” value in [3] is reported as below 2 fold. For the same molecule, the “down-regulation of caspase-3” value in [4] was below 2 fold. Moreover, the IC50 in the data set with MCF7-AR1 cells is 0.35 nM. In the data set on C2C12 myotubes (concentrations up to 10 μM), the “effect on protein synthesis” value was “no significant effect”.
As to `CC(C)(O)CC[C@@H](O)[C@](C)(O)[C@H]1CC[C@@]2(O)C3=CC(=O)[C@@H]4C[C@@H](O)[C@@H](O)C[C@]4(C)[C@H]3[C@H](O)C[C@]12C` [turkesterone], in data set [1] (mouse liver, control group 3.98), the “ratio of translating to nontranslating ribosomes” value was 3.80. Besides, the “ratio of test to control (weight gain)” value was 1.8 in data set [5] (setting [8]) and 2.6 in [5] (sexually immature intact rats). Moreover, in data set [5] (setting [9]), the weight gain is on record as 38 mg per 1 g initial weight per day. For the same molecule, in data set [5] (sexually immature intact rats), the “total protein content of organs” value is “statistically significant increase”. In addition, the body weight gain in data set [5] (setting [10]) was 9.7 mg per 1 g weight per day. Also, the “body weight gain relative to control” value in data set [5] (setting [10]) was 2 times. The “weight of the ventral prostate and seminal vesicles” value in [6] (setting [8]) is listed as “did not change”; in [6] (setting [10]) it was “did not change significantly”. Further, the “effect on the sexual apparatus (ventral prostate weight, seminal vesicle weight)” value in data set [6] is on record as “pronounced effect”. The “regulation of Caspase 3 expression” value in [7] was “significant effect in down regulation”. Further, in data set [2], the “effect of actinomycin D on the stimulation of liver protein synthesis” value is reported as “no noticeable effect”. Also, the “protein synthesis, % of control” value with C2C12 myotubes (40 nM) is given as 110 % of control. Moreover, in the data set with C2C12 myotubes (0.1 μM), the “protein synthesis, % of control (peak effect)” value was 120 % of control.
As for turkesterone tetraacetate, the “ratio of test to control (weight gain)” value in [5] (setting [8]) is 1.9; in data set [5] (sexually immature intact rats), 2.5. Besides, in data set [5] (setting [9]), the weight gain was 37.2 mg per 1 g initial weight per day. For the same molecule, the “total protein content of organs” value in [5] (sexually immature intact rats) is “statistically significant increase”. For the same molecule, in data set [5] (setting [10]), the “heart weight and weight of the anterior tibial muscle” value was “statistically significant increase”. For the same molecule, the “weight of the ventral prostate and seminal vesicles” value in [6] (setting [8]) is reported as “did not change”; in data set [6] (setting [10]) it was “did not change significantly”. The “effect on the sexual apparatus (ventral prostate weight, seminal vesicle weight)” value in [6] is listed as “pronounced effect”.

These data come from patent US20190054093A1, “TREATMENT OF SARCOPENIA WITH ECDYSTEROIDS” (priority 2014, published 2019).
